Measurements taken from patent US20260258048A1, “LACTAM-CONTAINING IMIDAZOPYRIDAZINE IL-17 INHIBITOR COMPOUNDS” (Janssen Pharmaceutica NV, priority 2023, published 2026).

Columns and labels:
[1] = target: IL-17A(FLAG-tagged): IL-17RA(His-tagged) (Homo sapiens, UniProt Q16552, K93Q); experiment: IL-17A(FLAG-tagged): IL-17RA(His-tagged) binding disruption Eu-HTRF assay; conditions: class of the average IC50 where tested more than once
In short: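 Compound (22-point, 2-fold series) was pre-incubated 1 h at rt with FLAG-IL-17A, added as a 2× solution (1 μM). A 2× mix of C-terminal 10×His IL-17RA, Eu-anti-FLAG donor and D2-anti-His acceptor in PBS/0.01% Triton X-100/200 mM KF was then added for 2 h at rt. The 665/615 nm ratio was fitted to one-site competition for IC50.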

[2] = tested on: IL-17A-induced G-CSF production in human normal keratinocyte (NHK); experiment: NHK assay: IL-17A-induced G-CSF production in normal human keratinocytes; format: cell-based; conditions: IL-17A 5 ng/mL, 24 h, class of the average IC50 where tested more than once
In short: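 Adult keratinocytes at 3000-4000 cells/well; recombinant human IL-17A pre-incubated 1 h at rt with titrated compound, then added to cells (final 5 ng/mL IL-17A, 0.2% DMSO, 5% FBS) for 24 h at 37 °C. Supernatant G-CSF quantified by HTRF against a standard curve to give IC50; viability checked by CellTiter-Glo versus DMSO.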

Sequence of UniProt Q16552 (Q16552 with tags, fused parts or gaps K93Q): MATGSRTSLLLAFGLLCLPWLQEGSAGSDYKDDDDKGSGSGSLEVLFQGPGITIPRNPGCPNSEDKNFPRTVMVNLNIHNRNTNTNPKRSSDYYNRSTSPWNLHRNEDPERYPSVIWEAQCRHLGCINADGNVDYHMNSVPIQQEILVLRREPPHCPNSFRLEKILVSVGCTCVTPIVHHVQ

IC50 [1] [µM] | SMILES | IC50 [2] [µM] | IC50 ([2]; Homo sapiens, Keratinocyte) [µM]
< 0.4 | Cc1nonc1C(=O)N[C@H](c1cn2ncc(CC3C[C@@H](C(F)(F)F)NC3=O)cc2n1)C1CCC(F)(F)CC1 (single isomer, unassigned) [Example 9, N—[(S)-(4,4-Difluorocyclohexyl)-[7-[[(3S*,5S)-2-oxo-5-(trifluoromethyl)pyrrolidin-3-yl]methyl]imidazo[1,2-b]pyridazin-2-yl]methyl]-4-methyl-1,2,5-oxadiazole-3-carboxamide] | < 0.4 | 
> 4 | Cc1nonc1C(=O)N[C@H](c1cn2ncc(CC3C[C@@H](C(F)(F)F)NC3=O)cc2n1)C1CCC(F)(F)CC1 (single isomer, unassigned) [Example 10, N—[(S)-(4,4-Difluorocyclohexyl)-[7-[[(3R*,5S)-2-oxo-5-(trifluoromethyl)pyrrolidin-3-yl]methyl]imidazo[1,2-b]pyridazin-2-yl]methyl]-4-methyl-1,2,5-oxadiazole-3-carboxamide] | > 4 | 
< 0.4 | O=C(N[C@H](c1cn2ncc(C[C@@]34CCC[C@H](C3)NC4=O)cc2n1)C1CCC(F)(F)CC1)c1nonc1C1CC1 (single isomer, unassigned) [Example 11] |  | < 0.4
< 0.4 | CC1(C)CC(Cc2cnn3cc([C@@H](NC(=O)c4nonc4C4CC4)C4CCC(F)(F)CC4)nc3c2)C(=O)N1 (single isomer, unassigned) [Example 13, 4-Cyclopropyl-N—[(S)-(4,4-difluorocyclohexyl)-[7-[[(3R*)-5,5-dimethyl-2-oxo-pyrrolidin-3-yl]methyl]imidazo[1,2-b]pyridazin-2-yl]methyl]-1,2,5-oxadiazole-3-carboxamide] |  | 0.4 to 4
> 4 | CC1(C)C[C@H](Cc2cnn3cc([C@@H](NC(=O)c4nonc4C4CC4)C4CCC(F)(F)CC4)nc3c2)C(=O)N1 (single isomer, unassigned) [Example 14] |  | > 4
> 4 | CC1(C)CNC(=O)C1Cc1cnn2cc([C@@H](NC(=O)c3nonc3C3CC3)C3CCC(F)(F)CC3)nc2c1 (single isomer, unassigned) [Example 15, 4-Cyclopropyl-N—[(S)-(4,4-difluorocyclohexyl)-[7-[[(3R*)-4,4-dimethyl-2-oxo-pyrrolidin-3-yl]methyl]imidazo[1,2-b]pyridazin-2-yl]methyl]-1,2,5-oxadiazole-3-carboxamide] |  | > 4
0.4 to 4 | CC1(C)CNC(=O)C1Cc1cnn2cc([C@@H](NC(=O)c3nonc3C3CC3)C3CCC(F)(F)CC3)nc2c1 (single isomer, unassigned) [Example 16, 4-Cyclopropyl-N—[(S)-(4,4-difluorocyclohexyl)-[7-[[(3S*)-4,4-dimethyl-2-oxo-pyrrolidin-3-yl]methyl]imidazo[1,2-b]pyridazin-2-yl]methyl]-1,2,5-oxadiazole-3-carboxamide] | > 4 | 
0.4 to 4 | O=C(N[C@H](c1cn2ncc(C[C@@]34CC[C@H](C3)NC4=O)cc2n1)C1CCC(F)(F)CC1)c1nonc1C1CC1 (single isomer, unassigned) [Example 17] |  | > 4
0.4 to 4 | O=C(N[C@H](c1cn2ncc(C[C@]34CC[C@@H](C3)NC4=O)cc2n1)C1CCC(F)(F)CC1)c1nonc1C1CC1 (single isomer, unassigned) [Example 18] |  | 0.4 to 4
< 0.4 | CC[C@@H](c1cnn2cc([C@@H](NC(=O)c3nonc3C3CC3)C3CCC(F)(F)CC3)nc2c1)[C@@H]1C[C@@H](C(F)(F)F)NC1=O (single isomer, unassigned) [Example 19] |  | < 0.4
0.4 to 4 | O=C(N[C@H](c1cn2ncc(CC3CCNC3=O)cc2n1)C1CCC(F)(F)CC1)c1nonc1C1CC1 (single isomer, unassigned) [Example 21, 4-Cyclopropyl-N—[(S)-(4,4-difluorocyclohexyl)-[7-[[(3R*)-2-oxopyrrolidin-3-yl]methyl]imidazo[1,2-b]pyridazin-2-yl]methyl]-1,2,5-oxadiazole-3-carboxamide] |  | > 4
> 4 | O=C(N[C@H](c1cn2ncc(CC3CCNC3=O)cc2n1)C1CCC(F)(F)CC1)c1nonc1C1CC1 (single isomer, unassigned) [Example 22, 4-Cyclopropyl-N—[(S)-(4,4-difluorocyclohexyl)-[7-[[(3S*)-2-oxopyrrolidin-3-yl]methyl]imidazo[1,2-b]pyridazin-2-yl]methyl]-1,2,5-oxadiazole-3-carboxamide] | > 4 | 
0.4 to 4 | O=C(N[C@H](c1cn2ncc(CC3CCCCNC3=O)cc2n1)C1CCC(F)(F)CC1)c1nonc1C1CC1 (single isomer, unassigned) [Example 25, 4-Cyclopropyl-N—((S)-(4,4-difluorocyclohexyl(7-(((R*)-2-oxoazepan-3-yl)methyl)imidazo[1,2-b]pyridazin-2-yl)methyl)-1,2,5-oxadiazole-3-carboxamide] |  | > 4
0.4 to 4 | O=C(N[C@H](c1cn2ncc(CC3CCCCNC3=O)cc2n1)C1CCC(F)(F)CC1)c1nonc1C1CC1 (single isomer, unassigned) [Example 26, 4-Cyclopropyl-N—((S)-(4,4-difluorocyclohexyl)(7-(((S*)-2-oxoazepan-3-yl)methyl)imidazo[1,2-b]pyridazin-2-yl)methyl)-1,2,5-oxadiazole-3-carboxamide] | > 4 | 
0.4 to 4 | CC1(Cc2cnn3cc([C@@H](NC(=O)c4nonc4C4CC4)C4CCC(F)(F)CC4)nc3c2)CCCNC1=O (single isomer, unassigned) [Example 27, 4-Cyclopropyl-N—((S)-(4,4-difluorocyclohexyl)(7-(((R*)-3-methyl-2-oxopiperidin-3-yl)methyl)imidazo[1,2-b]pyridazin-2-yl)methyl)-1,2,5-oxadiazole-3-carboxamide] | > 4 | 
< 0.4 | CC1(Cc2cnn3cc([C@@H](NC(=O)c4nonc4C4CC4)C4CCC(F)(F)CC4)nc3c2)CCCNC1=O (single isomer, unassigned) [Example 28, 4-Cyclopropyl-N—((S)-(4,4-difluorocyclohexyl)(7-(((S*)-3-methyl-2-oxopiperidin-3-yl)methyl)imidazo[1,2-b]pyridazin-2-yl)methyl)-1,2,5-oxadiazole-3-carboxamide] | 0.4 to 4 | 
> 4 | O=C(N[C@H](c1cn2ncc([C@H]3C[C@]34C[C@@H](C(F)(F)F)NC4=O)cc2n1)C1CCC(F)(F)CC1)c1nonc1C1CC1 (single isomer, unassigned) [Example 40] |  | > 4
< 0.4 | O=C(N[C@H](c1cn2ncc(CC3C[C@@H](C4CC4)NC3=O)cc2n1)C1CCC(F)(F)CC1)c1nonc1C1CC1 (single isomer, unassigned) [Example 42, 4-Cyclopropyl-N—((S)-(7-(((3S*,5S)-5-cyclopropyl-2-oxopyrrolidin-3-yl)methyl)imidazo[1,2-b]pyridazin-2-yl)(4,4-difluorocyclohexyl)methyl)-1,2,5-oxadiazole-3-carboxamide] | < 0.4 | 
0.4 to 4 | O=C(N[C@H](c1cn2ncc(CC3C[C@@H](C4CC4)NC3=O)cc2n1)C1CCC(F)(F)CC1)c1nonc1C1CC1 (single isomer, unassigned) [Example 43, 4-Cyclopropyl-N—((S)-(7-(((3R*,5S)-5-cyclopropyl-2-oxopyrrolidin-3-yl)methyl)imidazo[1,2-b]pyridazin-2-yl)(4,4-difluorocyclohexyl)methyl)-1,2,5-oxadiazole-3-carboxamide] | > 4 | 
0.4 to 4 | O=C(N[C@H](c1cn2ncc(CC3C(=O)NCC3C(F)(F)F)cc2n1)C1CCC(F)(F)CC1)c1nonc1C1CC1 (single isomer, unassigned) [Example 50] |  | > 4
0.4 to 4 | CC1(Cc2cnn3cc([C@@H](NC(=O)c4nonc4C4CC4)C4CCC(F)(F)CC4)nc3c2)CCNC1=O (single isomer, unassigned) [Example 53, 4-Cyclopropyl-N—((S)-(4,4-difluorocyclohexyl)(7-(((R*)-3-methyl-2-oxopyrrolidin-3-yl)methyl)imidazo[1,2-b]pyridazin-2-yl)methyl)-1,2,5-oxadiazole-3-carboxamide] | 0.4 to 4 | 
0.4 to 4 | CC1(Cc2cnn3cc([C@@H](NC(=O)c4nonc4C4CC4)C4CCC(F)(F)CC4)nc3c2)CCNC1=O (single isomer, unassigned) [Example 54, 4-Cyclopropyl-N—((S)-(4,4-difluorocyclohexyl)(7-(((S*)-3-methyl-2-oxopyrrolidin-3-yl)methyl)imidazo[1,2-b]pyridazin-2-yl)methyl)-1,2,5-oxadiazole-3-carboxamide] | > 4 | 
0.4 to 4 | C[C@@]1(C(F)(F)F)CC(Cc2cnn3cc([C@@H](NC(=O)c4nonc4C4CC4)C4CCC(F)(F)CC4)nc3c2)C(=O)N1 (single isomer, unassigned) [Example 56, 4-Cyclopropyl-N—((S)-(4,4-difluorocyclohexyl)(7-(((3R*,5S)-5-methyl-2-oxo-5-(trifluoromethyl)pyrrolidin-3-yl)methyl)imidazo[1,2-b]pyridazin-2-yl)methyl)-1,2,5-oxadiazole-3-carboxamide] | 0.4 to 4 | 
